# Experiment: HPLC stability of bendamustine (15 mg/mL, mannitol 25.5 mg/mL) in alcohol/water solutions at 5° C.
# Assay type: physicochemical
# Settings: 5° C.
# Protocol: A sample of each formulation was analyzed by HPLC after 0, 3, 6 and 24 hours when stored at 5° C.
smiles,measurement,setting,value
"Cl.Cn1c(CCCC(=O)O)nc2cc(N(CCCl)CCCl)ccc21 [bendamustine, 4-{5-[Bis(2-chloroethyl)amino]-1-methyl-2-benzimidazolyl}butyric acid]",Dimer (%),"1.9% Ethanol, 0 hours",0.12%
same,HP1 (%),"1.9% Ethanol, 0 hours",0.64%
same,Purity (% Area),"1.9% Ethanol, 0 hours",99.11 % Area
same,Dimer (%),"1.9% Ethanol, 3 hours",0.14%
same,HP1 (%),"1.9% Ethanol, 3 hours",0.90%
same,Purity (% Area),"1.9% Ethanol, 3 hours",98.83 % Area
same,Dimer (%),"1.9% Ethanol, 6 hours",0.15%
same,HP1 (%),"1.9% Ethanol, 6 hours",1.12%
same,Purity (% Area),"1.9% Ethanol, 6 hours",98.60 % Area
same,Dimer (%),"1.9% Ethanol, 24 hours",0.27%
same,HP1 (%),"1.9% Ethanol, 24 hours",3.41%
same,Purity (% Area),"1.9% Ethanol, 24 hours",96.16 % Area
same,Dimer (%),"5% Butanol, 0 hours",0.13%
same,HP1 (%),"5% Butanol, 0 hours",0.49%
same,Dimer (%),"5% Butanol, 3 hours",0.14%
same,Dimer (%),"5% Butanol, 6 hours",0.14%
same,HP1 (%),"5% Butanol, 6 hours",0.91%
same,Purity (% Area),"5% Butanol, 6 hours",98.76 % Area
same,Dimer (%),"5% Butanol, 24 hours",0.21%
same,HP1 (%),"5% Butanol, 24 hours",2.20%
same,Purity (% Area),"5% Butanol, 24 hours",97.46 % Area
same,Dimer (%),"5% Ethanol, 0 hours",0.12%
same,HP1 (%),"5% Ethanol, 0 hours",0.44%
same,Purity (% Area),"5% Ethanol, 0 hours",99.31 % Area
same,Dimer (%),"5% Ethanol, 3 hours",0.13%
same,HP1 (%),"5% Ethanol, 3 hours",0.64%
same,Purity (% Area),"5% Ethanol, 3 hours",99.10 % Area
same,Dimer (%),"5% Ethanol, 6 hours",0.14%
same,HP1 (%),"5% Ethanol, 6 hours",0.86%
same,Purity (% Area),"5% Ethanol, 6 hours",98.87 % Area
same,Dimer (%),"5% Ethanol, 24 hours",0.25%
same,HP1 (%),"5% Ethanol, 24 hours",2.68%
same,Purity (% Area),"5% Ethanol, 24 hours",96.89 % Area
same,Dimer (%),"5% Iso-propanol, 0 hours",0.13%
same,HP1 (%),"5% Iso-propanol, 0 hours",0.48%
same,Purity (% Area),"5% Iso-propanol, 0 hours",99.21 % Area
same,Dimer (%),"5% Iso-propanol, 3 hours",0.14%
same,HP1 (%),"5% Iso-propanol, 3 hours",0.72%
same,Purity (% Area),"5% Iso-propanol, 3 hours",98.65 % Area
same,Dimer (%),"5% Iso-propanol, 6 hours",0.14%
same,HP1 (%),"5% Iso-propanol, 6 hours",1.02%
same,Purity (% Area),"5% Iso-propanol, 6 hours",98.56 % Area
same,Dimer (%),"5% Iso-propanol, 24 hours",0.26%
same,HP1 (%),"5% Iso-propanol, 24 hours",3.35%
same,Purity (% Area),"5% Iso-propanol, 24 hours",96.14 % Area
same,Dimer (%),"5% Methanol, 0 hours",0.12%
same,HP1 (%),"5% Methanol, 0 hours",0.40%
same,Purity (% Area),"5% Methanol, 0 hours",99.35 % Area
same,Dimer (%),"5% Methanol, 3 hours",0.14%
same,HP1 (%),"5% Methanol, 3 hours",0.70%
same,Purity (% Area),"5% Methanol, 3 hours",98.97 % Area
same,Dimer (%),"5% Methanol, 6 hours",0.14%
same,HP1 (%),"5% Methanol, 6 hours",0.95%
same,Purity (% Area),"5% Methanol, 6 hours",98.66 % Area
same,Dimer (%),"5% Methanol, 24 hours",0.23%
same,HP1 (%),"5% Methanol, 24 hours",2.83%
same,Purity (% Area),"5% Methanol, 24 hours",96.65 % Area
same,Dimer (%),"5% Tert-butanol, 0 hours",0.12%
same,HP1 (%),"5% Tert-butanol, 0 hours",0.41%
same,Purity (% Area),"5% Tert-butanol, 0 hours",99.34 % Area
same,Dimer (%),"5% Tert-butanol, 3 hours",0.14%
same,HP1 (%),"5% Tert-butanol, 3 hours",0.64%
same,Purity (% Area),"5% Tert-butanol, 3 hours",99.10 % Area
same,Dimer (%),"5% Tert-butanol, 6 hours",0.13%
same,HP1 (%),"5% Tert-butanol, 6 hours",0.88%
same,Purity (% Area),"5% Tert-butanol, 6 hours",98.85 % Area
same,Dimer (%),"5% Tert-butanol, 24 hours",0.20%
same,HP1 (%),"5% Tert-butanol, 24 hours",2.09%
same,Purity (% Area),"5% Tert-butanol, 24 hours",97.58 % Area
same,Dimer (%),"5% n-Propanol, 0 hours",0.13%
same,HP1 (%),"5% n-Propanol, 0 hours",0.43%
same,Purity (% Area),"5% n-Propanol, 0 hours",99.25 % Area
same,Dimer (%),"5% n-Propanol, 3 hours",0.15%
same,HP1 (%),"5% n-Propanol, 3 hours",0.66%
same,Purity (% Area),"5% n-Propanol, 3 hours",99.00 % Area
same,Dimer (%),"5% n-Propanol, 6 hours",0.16%
same,HP1 (%),"5% n-Propanol, 6 hours",0.94%
same,Purity (% Area),"5% n-Propanol, 6 hours",98.72 % Area
same,Dimer (%),"5% n-Propanol, 24 hours",0.26%
same,HP1 (%),"5% n-Propanol, 24 hours",2.33%
same,Purity (% Area),"5% n-Propanol, 24 hours",97.24 % Area
same,Dimer (%),"10% Butanol, 0 hours",0.11%
same,HP1 (%),"10% Butanol, 0 hours",0.30%
same,Purity (% Area),"10% Butanol, 0 hours",99.44 % Area
same,Dimer (%),"10% Butanol, 3 hours",0.12%
same,HP1 (%),"10% Butanol, 3 hours",0.49%
same,Purity (% Area),"10% Butanol, 3 hours",99.18 % Area
same,Dimer (%),"10% Butanol, 6 hours",0.12%
same,HP1 (%),"10% Butanol, 6 hours",0.64%
same,Purity (% Area),"10% Butanol, 6 hours",99.03 % Area
same,Dimer (%),"10% Butanol, 24 hours",0.17%
same,HP1 (%),"10% Butanol, 24 hours",1.55%
same,Purity (% Area),"10% Butanol, 24 hours",98.13 % Area
same,Dimer (%),"10% Ethanol, 0 hours",0.11%
same,HP1 (%),"10% Ethanol, 0 hours",0.33%
same,Purity (% Area),"10% Ethanol, 0 hours",99.44 % Area
same,Dimer (%),"10% Ethanol, 3 hours",0.12%
same,HP1 (%),"10% Ethanol, 3 hours",0.48%
same,Purity (% Area),"10% Ethanol, 3 hours",99.28 % Area
same,Dimer (%),"10% Ethanol, 6 hours",0.12%
same,HP1 (%),"10% Ethanol, 6 hours",0.65%
same,Purity (% Area),"10% Ethanol, 6 hours",99.10 % Area
same,Dimer (%),"10% Ethanol, 24 hours",0.18%
same,HP1 (%),"10% Ethanol, 24 hours",1.57%
same,Purity (% Area),"10% Ethanol, 24 hours",98.03 % Area
same,Dimer (%),"10% Iso-propanol, 0 hours",0.12%
same,HP1 (%),"10% Iso-propanol, 0 hours",0.37%
same,Purity (% Area),"10% Iso-propanol, 0 hours",99.32 % Area
same,Dimer (%),"10% Iso-propanol, 3 hours",0.14%
same,HP1 (%),"10% Iso-propanol, 3 hours",0.55%
same,Purity (% Area),"10% Iso-propanol, 3 hours",99.11 % Area
same,Dimer (%),"10% Iso-propanol, 6 hours",0.16%
same,HP1 (%),"10% Iso-propanol, 6 hours",0.75%
same,Purity (% Area),"10% Iso-propanol, 6 hours",98.85 % Area
same,Dimer (%),"10% Iso-propanol, 24 hours",0.21%
same,HP1 (%),"10% Iso-propanol, 24 hours",1.92%
same,Purity (% Area),"10% Iso-propanol, 24 hours",97.68 % Area
same,Dimer (%),"10% Methanol, 0 hours",0.11%
same,HP1 (%),"10% Methanol, 0 hours",0.34%
same,Purity (% Area),"10% Methanol, 0 hours",99.42 % Area
same,Dimer (%),"10% Methanol, 3 hours",0.12%
same,HP1 (%),"10% Methanol, 3 hours",0.59%
same,Purity (% Area),"10% Methanol, 3 hours",99.01 % Area
same,Dimer (%),"10% Methanol, 6 hours",0.12%
same,HP1 (%),"10% Methanol, 6 hours",0.80%
same,Purity (% Area),"10% Methanol, 6 hours",98.86 % Area
same,Dimer (%),"10% Methanol, 24 hours",0.18%
same,HP1 (%),"10% Methanol, 24 hours",1.85%
same,Purity (% Area),"10% Methanol, 24 hours",97.65 % Area
same,Dimer (%),"10% Tert-butanol, 0 hours",0.11%
same,HP1 (%),"10% Tert-butanol, 0 hours",0.30%
same,Purity (% Area),"10% Tert-butanol, 0 hours",99.46 % Area
same,Dimer (%),"10% Tert-butanol, 3 hours",0.12%
same,HP1 (%),"10% Tert-butanol, 3 hours",0.48%
same,Purity (% Area),"10% Tert-butanol, 3 hours",99.26 % Area
same,Dimer (%),"10% Tert-butanol, 6 hours",0.13%
same,HP1 (%),"10% Tert-butanol, 6 hours",0.69%
same,Purity (% Area),"10% Tert-butanol, 6 hours",99.05 % Area
same,Dimer (%),"10% Tert-butanol, 24 hours",0.19%
same,HP1 (%),"10% Tert-butanol, 24 hours",1.64%
same,Purity (% Area),"10% Tert-butanol, 24 hours",98.04 % Area
same,Dimer (%),"10% n-Propanol, 0 hours",0.15%
same,HP1 (%),"10% n-Propanol, 0 hours",0.33%
same,Purity (% Area),"10% n-Propanol, 0 hours",99.34 % Area
same,Dimer (%),"10% n-Propanol, 3 hours",0.14%
same,HP1 (%),"10% n-Propanol, 3 hours",0.48%
same,Purity (% Area),"10% n-Propanol, 3 hours",99.17 % Area
same,Dimer (%),"10% n-Propanol, 6 hours",0.16%

# Reference: patent US8895756B2, “Bendamustine pharmaceutical compositions” (priority 2005, dated 2014)
